Measured values taken from patent publication US8653275B2, “Bis-quaternary ammonium cyclophane compounds that interact with neuronal nicotinic acetylcholine receptors” (University of Kentucky Research Foundation, priority 2006, dated 2014).

Legend:
[1] = biological target: T1, Rat striatal nicotinic receptors ([3H]MLA binding) (Rattus norvegicus, UniProt Q05941); experiment: Inhibition of [3H]methyllycaconitine (MLA) binding; details: for Inhibition of [3H]MLA Binding: % inhibition at 100 nM analog, 2.5 nM [3H]MLA, nonspecific binding with 1 μM nicotine (footnote b)
T1 construct: Whole brain, excluding cortex and cerebellum, was homogenized; from tissue; host or cells: rat brain membranes (whole brain excluding cortex and cerebellum)
T1 sequence (Q05941 23-502): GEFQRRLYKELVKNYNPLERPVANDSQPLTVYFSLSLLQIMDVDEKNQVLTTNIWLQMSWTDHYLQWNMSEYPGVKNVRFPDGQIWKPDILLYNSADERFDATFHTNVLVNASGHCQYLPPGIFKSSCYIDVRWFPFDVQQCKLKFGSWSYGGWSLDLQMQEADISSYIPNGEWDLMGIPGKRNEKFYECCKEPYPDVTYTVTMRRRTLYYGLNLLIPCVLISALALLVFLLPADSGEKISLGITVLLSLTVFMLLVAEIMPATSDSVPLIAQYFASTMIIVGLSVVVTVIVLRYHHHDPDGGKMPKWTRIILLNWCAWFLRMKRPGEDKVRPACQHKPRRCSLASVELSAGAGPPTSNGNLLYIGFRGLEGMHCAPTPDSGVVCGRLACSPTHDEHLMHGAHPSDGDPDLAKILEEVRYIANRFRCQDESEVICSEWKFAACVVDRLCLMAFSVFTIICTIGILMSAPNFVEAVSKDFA
Description: Whole brain, excluding cortex and cerebellum, was homogenized in 20 vol of ice-cold buffer, containing (in mM): 2 HEPES, 11.8 NaCl, 0.48 KCl, 0.25 CaCl2 and 0.12 MgSO4, pH 7.5. Homogenate was centrifuged (25,000 g, 15 min, 4° C.). Pellets were resuspended in 20 vol buffer and incubated at 37° C., for 10 min, cooled to 4° C. and centrifuged (25,000 g, 15 min, 4° C.). Pellets were resuspended and centrifuged using the same conditions. Final pellets were stored in assay buffer, containing (in mM): 20 HEPES, 118 NaCl, 4.8 KCl, 2.5 CaCl2, and 1.2 MgSO4, pH 7.5 at −70° C. Upon use, final pellets were resuspended in ˜20 vol assay buffer. […] Control was in the absence of analog. […] Incubations proceeded for 60 min at room temperature using 96-well plates and were terminated by harvesting on Unifilter-96 GF/B filter plates presoaked in 0.5% polyethylenimine, using a Packard FilterMate harvester. After washing 5 times with 350 μl ice-cold assay buffer, filter plates were dried (60 min, 4° C.), bottom-sealed, and filled with Packard's MicroScint 20 cocktail (40 μl/well). After 60 min, filter plates were top-sealed, and radioactivity determined using a Packard TopCount. Protein concentrations were determined using the Bradford dye-binding procedure bovine serum albumin as the standard.

[2] = test system: nicotine-evoked [3H]DA release, rat striatal slices; experiment: Inhibition of nicotine-evoked [3H]dopamine release from superfused rat striatal slices; type: cell-based; details: 100 nM analog superfused 60 min before nicotine (10 μM)
Description: Rat striatal slices (500 μm thickness, 6-8 mg wet weight) were incubated for 30 minutes in Krebs buffer (118 mM NaCl, 4.7 mM KCl, 1.2 mM MgCl2, 1.0 mM NaH2PO4, 1.3 mM CaCl2, 11.1 mM glucose, 25 mM NaHCO3, 0.11 mM L-ascorbic acid, and 0.004 mM disodium EDTA; pH 7.4, and saturated with 95% O2/5% CO2) in a metabolic shaker at 34° C. Slices were rinsed with 15 mL of fresh buffer and incubated for an additional 30 minutes in fresh buffer containing 0.1 μM [^3H]dopamine (DA; 6 slices/3 mL). Subsequently, slices were rinsed with 15 mL of fresh buffer and transferred to a glass superfusion chamber. Slices were superfused (1.0 mL/min) for 60 minutes with Krebs buffer containing nomifensine (10 μM) and pargyline (10 μM) and maintained at 34° C., pH 7.4, with continual aeration (95% O2/5% CO2). Two five minute samples (5 mL each) were collected to determine basal outflow of [^3H]DA. The bis-quaternary ammonium cyclophane analogs were added to the superfusion buffer after the collection of the second sample and remained in the buffer until 12 consecutive five minute samples were collected. […] At the end of the experiment, each slice was solubilized and the [^3H] content of the tissue determined.
Radioactivity in the superfusate and tissue samples was determined by liquid scintillation spectroscopy. Fractional release for tritium collected in each sample was divided by the total tritium present in the tissue at the time of sample collection and was expressed as a percentage of total tritium. Basal [^3H]outflow was calculated from the average of the tritium collected in the two five minute samples just before addition of the quaternary ammonium analog. […] [^3H]Overflow was calculated by subtracting the [^3H]outflow during an equivalent period of prestimulation from the values in samples collected during and after drug exposure. […]
The bis-quaternary ammonium cyclophane analogs were also evaluated for their ability to inhibit nicotine evoked [^3H]DA release. […] Antagonist activity was evaluated by comparing the nicotine evoked [^3H]overflow in the absence and presence of the analogs. […]

[3] = biological target: T2, Rat striatal nicotinic receptors ([3H]nicotine binding) (Rattus norvegicus, UniProt P09483+P12390); experiment: Inhibition of [3H]nicotine binding; details: 3 nM [3H]nicotine; for Inhibition of [3H]Nicotine binding: % inhibition at 100 nM analog, nonspecific binding with 10 μM cytisine
T2 construct: Whole brain, excluding cortex and cerebellum, was homogenized; from tissue; host or cells: rat brain membranes (whole brain excluding cortex and cerebellum)
T2 sequence (P09483 31-630): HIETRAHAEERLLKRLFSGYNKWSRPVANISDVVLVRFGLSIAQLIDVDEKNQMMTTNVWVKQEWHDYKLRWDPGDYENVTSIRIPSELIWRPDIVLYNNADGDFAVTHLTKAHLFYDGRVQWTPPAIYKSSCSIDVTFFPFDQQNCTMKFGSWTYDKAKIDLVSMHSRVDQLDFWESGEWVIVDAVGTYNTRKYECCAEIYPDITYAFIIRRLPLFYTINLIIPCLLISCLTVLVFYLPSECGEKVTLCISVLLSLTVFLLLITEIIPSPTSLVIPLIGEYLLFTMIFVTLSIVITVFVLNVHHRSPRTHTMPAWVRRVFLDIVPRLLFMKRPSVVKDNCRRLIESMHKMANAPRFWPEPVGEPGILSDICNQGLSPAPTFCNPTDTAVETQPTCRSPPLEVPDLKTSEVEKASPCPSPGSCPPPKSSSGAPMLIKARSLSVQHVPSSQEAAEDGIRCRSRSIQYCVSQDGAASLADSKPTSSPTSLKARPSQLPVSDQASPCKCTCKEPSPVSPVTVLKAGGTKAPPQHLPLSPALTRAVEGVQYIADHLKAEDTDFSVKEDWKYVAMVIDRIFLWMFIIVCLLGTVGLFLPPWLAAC
T2 sequence (P12390 25-500): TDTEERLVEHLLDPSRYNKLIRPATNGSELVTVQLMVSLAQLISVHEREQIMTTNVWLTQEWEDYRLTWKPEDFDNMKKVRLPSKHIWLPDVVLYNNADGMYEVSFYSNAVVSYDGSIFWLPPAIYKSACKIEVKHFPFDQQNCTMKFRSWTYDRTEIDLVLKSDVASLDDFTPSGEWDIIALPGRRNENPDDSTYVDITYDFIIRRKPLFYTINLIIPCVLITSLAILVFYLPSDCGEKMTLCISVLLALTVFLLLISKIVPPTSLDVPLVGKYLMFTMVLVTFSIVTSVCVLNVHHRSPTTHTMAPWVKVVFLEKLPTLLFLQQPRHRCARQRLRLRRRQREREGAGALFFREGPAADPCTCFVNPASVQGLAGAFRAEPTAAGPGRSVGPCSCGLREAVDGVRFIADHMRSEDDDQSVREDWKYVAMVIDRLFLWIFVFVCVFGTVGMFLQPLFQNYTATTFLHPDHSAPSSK
Description: Whole brain, excluding cortex and cerebellum, was homogenized in 20 vol of ice-cold buffer, containing (in mM): 2 HEPES, 11.8 NaCl, 0.48 KCl, 0.25 CaCl2 and 0.12 MgSO4, pH 7.5. Homogenate was centrifuged (25,000 g, 15 min, 4° C.). Pellets were resuspended in 20 vol buffer and incubated at 37° C., for 10 min, cooled to 4° C. and centrifuged (25,000 g, 15 min, 4° C.). Pellets were resuspended and centrifuged using the same conditions. Final pellets were stored in assay buffer, containing (in mM): 20 HEPES, 118 NaCl, 4.8 KCl, 2.5 CaCl2, and 1.2 MgSO4, pH 7.5 at −70° C. Upon use, final pellets were resuspended in ˜20 vol assay buffer. Samples (250 μl) contained 100-140 μg of membrane protein, 3 nM [^3H]nicotine or 3 nM [^3H]methyllycaconitine (MLA), and bis-quaternary ammonium cyclophane analog (100 nM) in assay buffer containing 50 mM Tris. Control was in the absence of analog. In [^3H]nicotine and [^3H]methyllycaconitine binding assays, nonspecific binding was determined in the presence of 10 μM cytisine and 10 μM nicotine, respectively. Incubations proceeded for 60 min at room temperature using 96-well plates and were terminated by harvesting on Unifilter-96 GF/B filter plates presoaked in 0.5% polyethylenimine, using a Packard FilterMate harvester. After washing 5 times with 350 μl ice-cold assay buffer, filter plates were dried (60 min, 4° C.), bottom-sealed, and filled with Packard's MicroScint 20 cocktail (40 μl/well). After 60 min, filter plates were top-sealed, and radioactivity determined using a Packard TopCount. Protein concentrations were determined using the Bradford dye-binding procedure bovine serum albumin as the standard.

BBB choline transporter = experiment: Affinity for the BBB choline transporter; type: binding
[4] = full concentration effect evaluated

Structure (SMILES) | Inhibition of [3H]MLA Binding [1] | Inhibition of Nicotine-evoked [3H]DA release [2] | Inhibition of [3H]Nicotine binding [3] | Ki (BBB choline transporter) | Ki [1, 4] | Ki [3, 4]
c1cc2c[n+](c1)CCCCCCCCCCCCc1ccc[n+](c1)CCCCCCCCCCCC2 [N,3′-(1,12-dodecanediyl)-3,N′-(1,12-dodecanediyl)-bis-pyridinium dibromide] | 0% | 20% | 2% |  |  | 
C1#Cc2ccc[n+](c2)CCCCCCCCC[n+]2cccc(c2)C#CCCCCCC1.[Br-].[Br-] [N,N′-(1,9-nonanediyl)-3,3′-(1,9-decanediyn-1,10-diyl)-bis-pyridinium dibromide] | 3% |  | 0% | 1.4 µM |  | 
C1#Cc2ccc[n+](c2)CCCCCCCC[n+]2cccc(c2)C#CCCCCCC1.[I-].[I-] [N,N′-(1,8-octanediyl)-3,3′-(1,9-decanediyn-1,10-diyl)-bis-pyridinium diiodide] | 0% |  | 9% |  |  | 
c1cc2c[n+](c1)CCCC[n+]1cccc(c1)CCCCCCCCCCCC2 [N,N′-(1,4-butanediyl)-3,3′-(1,12-dodecanediyl)-bis-pyridinium diiodide] | 3.0 ± 3.0% | 23% | 14 ± 2.6% |  |  | 
C1#Cc2ccc[n+](c2)CCCCCCCCCC[n+]2cccc(c2)C#CCCCCCC1 [N,N′-(1,10-decanediyl)-3,3′-(1,9-decanediyn-1,10-diyl)-bis-pyridinium diiodide] |  | 19% |  | 0.8 µM | 4.64 µM | 0.55 µM
C1#Cc2ccc[n+](c2)CCCCCCCCCCC[n+]2cccc(c2)C#CCCCCCC1.[Br-].[Br-] [N,N′-(1,11-undecanediyl)-3,3′-(1,9-decanediyn-1,10-diyl)-bis-pyridinium dibromide] | 3% |  | 11% | 15.2 µM |  | 
C1#Cc2ccc[n+](c2)CCCCCC[n+]2cccc(c2)C#CCCCCCC1.[I-].[I-] [N,N′-(1,6-hexanediyl)-3,3′-(1,9-decanediyn-1,10-diyl)-bis-pyridinium diiodide] | 2% |  | 7% | 33.6 µM |  | 
